#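 GI50 marks 50% less growth. Definition used: TGI = concentration required for complete inhibition of growth.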
# How the values were obtained:
# Experiment in all cases: NCI anticancer screen, dose series, 384-well format
# [1] = system: HCT-15 colon
# [2] = system: NCI-H460 NSCLC
# [3] = system: SN12C renal
# [4] = system: SR leukemia
# [5] = system: HL-60(TB) leukemia
# [6] = system: HT29 colon
# [7] = system: OVCAR-8 ovarian
# [8] = system: CAKI-1 renal
# [9] = system: M14 melanoma
# [10] = system: SNB-75 CNS
# [11] = system: NCI-H522 lung
# [12] = system: MALME-3M melanoma
# [13] = system: UACC-62 melanoma
# [14] = system: SK-MEL-2 melanoma
# [15] = system: OVCAR-3 ovarian
# [16] = system: NCI-H23 lung
# [17] = system: K-562 leukemia
# [18] = system: UACC-257 melanoma
# [19] = system: SK-OV-3 ovarian
# [20] = system: IGROV1 ovarian
# [21] = system: A549 NSCLC
# [22] = system: NCI-H322M lung
# [23] = system: A498 renal
# [24] = system: SK-MEL-28 melanoma
# [25] = system: U251 glioblastoma
# [26] = system: KM12 colon
# [27] = system: TK-10 renal
# [28] = system: HCT-116 colon
smiles,measurement,setting,value
COc1cc2c(N3CCN(C(=O)Nc4ccc(OC(C)C)cc4)CC3)ncnc2cc1OCCCN1CCCCC1,GI50,[1],15.8 µM
same,TGI,[1],29.5 µM
same,GI50,[2],2.48 µM
same,TGI,[2],12.2 µM
same,GI50,[3],13.1 µM
same,TGI,[3],26.2 µM
same,GI50,[4],1.93 µM
same,TGI,[4],3.54 µM
same,GI50,[5],15 µM
same,TGI,[5],28.4 µM
same,GI50,[6],3.24 µM
same,TGI,[6],11.3 µM
same,GI50,[7],11.3 µM
same,TGI,[7],32.3 µM
same,GI50,[8],2.25 µM
same,TGI,[8],6.6 µM
same,GI50,[9],12.3 µM
same,TGI,[9],24.9 µM
same,GI50,[10],9.87 µM
same,TGI,[10],21.6 µM
same,GI50,[11],12.5 µM
same,TGI,[11],25 µM
same,GI50,[12],5.03 µM
same,TGI,[12],17.2 µM
same,GI50,[13],7.65 µM
same,TGI,[13],20.6 µM
same,GI50,[14],3.78 µM
same,TGI,[14],12.8 µM
same,GI50,[15],14.3 µM
same,TGI,[15],28.2 µM
same,GI50,[16],12 µM
same,TGI,[16],25.7 µM
same,GI50,[17],3.31 µM
same,TGI,[17],11.5 µM
same,GI50,[18],1.99 µM
same,TGI,[18],4.04 µM
same,GI50,[19],12.5 µM
same,TGI,[19],25.2 µM
same,GI50,[20],13.4 µM
same,TGI,[20],26.9 µM
same,GI50,[21],14.1 µM
same,TGI,[21],29 µM
same,GI50,[22],12.1 µM
same,TGI,[22],32.7 µM
same,GI50,[23],5.09 µM
same,TGI,[23],17.3 µM
same,GI50,[24],12.3 µM
same,TGI,[24],24.8 µM
same,GI50,[25],11 µM
same,TGI,[25],23.1 µM
same,GI50,[26],12.3 µM
same,TGI,[26],25.1 µM
same,GI50,[27],10.8 µM
same,TGI,[27],25.2 µM
same,GI50,[28],9.38 µM

# — PubChem BioAssay (NCI)
